In EPA's ToxValDB 9.5 (doi:10.2903/j.efsa.2008.127r):
Converted amounts (≈) assume the structure as drawn.

Experiments:
[1] = tested on: Bibionidae; details: chronic/long-term; duration: 27 days
[2] = tested on: Anas platyrhynchos
[3] = tested on: Tagia sp.
[4] = tested on: Colinus virginianus
[5] = tested on: Folsomia candida; details: chronic/long-term; duration: 28 days
[6] = tested on: Apis mellifera; details: acute, mortality
[7] = tested on: Oncorhynchus mykiss
[8] = tested on: Rattus norvegicus
[9] = tested on: Daphnia magna; details: chronic/long-term; duration: 21 days; reproduction

CCCCN(CC)c1c([N+](=O)[O-])cc(C(F)(F)F)cc1[N+](=O)[O-] [Benfluralin]
NOEC [1]: 0.231 mg/L | NOEC ([2]; reproductive): 49.3 mg/kg-day | LC50 ([2]; short-term, oral, feed, mortality): > 793 mg/kg-day | LC50 ([3]; acute, duration: 14 days, mortality): > 1000 mg/kg | NOEC ([3]; chronic/long-term, duration: 8 weeks): 30.8 mg/kg | LC50 ([4]; acute, oral, diet, mortality): > 909 mg/kg-day | LD50 ([4]; acute, oral, mortality): > 2000 mg/kg-day | NOEC ([4]; reproduction developmental): 8.6 mg/kg-day | NOEC [5]: 5.5 mg/kg | LD50 ([6]; dermal): > 100 µg/piece | LD50 ([6]; oral, unspecified): > 111 µg/piece | LC50 ([7]; acute, duration: 96 hours, mortality): 0.081 µg/mL (≈ 0.242 µM) | NOEC ([7]; chronic/long-term, duration: 49 days, growth): 0.0019 mg/L | LD50 ([8]; acute, oral, mortality): > 5000 mg/kg-day | NOAEL ([8]; chronic, duration: 2 years, histopathology: nonneoplastic): 0.5 mg/kg-day | NOAEL ([8]; reproduction developmental, body weight): 5.5 mg/kg-day | NOAEL ([8]; subchronic, duration: 90 days, oral, histopathology: nonneoplastic): 17 mg/kg-day | NOEC [9]: 0.0155 mg/L
